These results are taken from patent publication EP0885890A1, “SULFONYLUREIDOPYRAZOLE DERIVATIVES” (SUMITOMO PHARMACEUTICALS COMPANY, LIMITED, priority 1996, dated 1997).

pIC50: −log10 of the molar value.

One assay concerns the target T1, rat lung ECE (Rattus norvegicus, UniProt P42893).
T1 construct: The solution was ultracentrifuged to obtain a supernatant, which can be used as the rat lung ECE; from tissue; host or cells: rat lung
T1 sequence (P42893 1-762): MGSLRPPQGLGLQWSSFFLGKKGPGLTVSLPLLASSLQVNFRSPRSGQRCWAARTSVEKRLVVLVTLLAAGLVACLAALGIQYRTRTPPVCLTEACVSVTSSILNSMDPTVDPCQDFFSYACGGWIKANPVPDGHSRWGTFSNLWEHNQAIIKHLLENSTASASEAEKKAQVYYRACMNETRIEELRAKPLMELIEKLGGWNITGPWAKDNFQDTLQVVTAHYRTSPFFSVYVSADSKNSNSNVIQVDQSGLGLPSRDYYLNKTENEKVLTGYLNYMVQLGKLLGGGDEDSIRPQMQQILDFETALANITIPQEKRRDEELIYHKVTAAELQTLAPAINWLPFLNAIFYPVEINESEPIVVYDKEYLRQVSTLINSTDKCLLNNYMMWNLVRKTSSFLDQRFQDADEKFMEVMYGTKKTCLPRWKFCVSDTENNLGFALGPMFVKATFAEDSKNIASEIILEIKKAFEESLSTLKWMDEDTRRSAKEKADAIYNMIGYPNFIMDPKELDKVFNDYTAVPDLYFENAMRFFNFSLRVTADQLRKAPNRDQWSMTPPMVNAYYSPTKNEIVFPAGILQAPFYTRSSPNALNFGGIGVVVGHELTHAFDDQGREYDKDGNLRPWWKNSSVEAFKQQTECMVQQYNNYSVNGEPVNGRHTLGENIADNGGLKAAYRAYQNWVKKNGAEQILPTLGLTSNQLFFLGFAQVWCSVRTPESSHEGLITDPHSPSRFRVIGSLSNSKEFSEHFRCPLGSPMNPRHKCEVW
Briefly: ECE inhibitory activity (rat lung ECE, conversion of human big ET-1 to ET-1, sandwich enzyme immunoassay). In kind it is biochemical. To be noted: rat lung ECE 10 µg, human big ET-1 0.8µg, 37°C, one hour. The procedure: Preparation of rat lung ECE and measurement of ECE inhibitory activity
Rat lung tissue was homogenized with a homogenizer in ice-cold 20 mM Tris-HCl buffer (pH7.5) containing 5 mM magnesium chloride, 1 mM phenylmethylsulfonyl fluoride (PMSF), 20 µM pepstatin A, and 20 µM leupeptin. The homogenate was centrifuged at 800 x G, and the supernatant was ultracentrifuged at 100,000 x G. Then, the procedures in which the resulting pellet was resuspended in the above buffer and ultracentrifuged as shown above, were repeated further twice so that plasma components and the like were removed. The resulting pellet was suspended, homogenized with a glass homogenizer, and ultracentrifuged. The resulting pellet was solubilized in 0.5% Triton X- 100. The solution was ultracentrifuged to obtain a supernatant, which can be used as the rat lung ECE. Each test compound and the rat lung ECE (10 µg) were preincubated at 37°C for 15 minutes in a 100mM Tris-HCl buffer (pH7.0) containing 1mM NEM, 100µM leupeptin, and 20µM pepstatin A, and then human big ET-1 (0.8µg) was added thereto (totally 200µl), and the mixture was incubated at 37°C for one hour.
The reaction was stopped by the addition of EDTA to give a final concentration of 1mM. ECE activities were determined to quantify the produced ET-1 by the ET-1 specific sandwich enzyme immunoassay method.
ECE inhibitory activities of the test compounds were evaluated by determination of the ECE activities in the presence or absence of the test compounds.

For the next assay, the target named is T2, ECE (Rattus norvegicus, UniProt P42893).
T2 construct: from tissue; host or cells: whole anesthetized male SD rat (in vivo)
T2 sequence (P42893 1-762): T1 sequence (P42893 1-762)
Briefly: Effect on the change in blood pressure induced by big ET-1 in anesthetized rats (ECE inhibition in vivo). The arrangement: species or system Male SD rat. To be noted: for Increase in systolic pressure: 15 minutes before big ET-1 (1nmol/kg i.v.), vehicle group 96 ± 4. As to the method: Test 2 Effect on the change in blood pressure induced by big ET-1 in rats
Male SD rat (body weight 230∼280g) was anesthetized with sodium thiobarbiturate (65mg/kg, i.p.) and fixed on a warming surgical bed, and the right femoral artery and the vein were cannulated for measurement of arterial blood pressure and for injection of test compounds, respectively. The ganglia were blocked by intraperitoneal administration of pentolinium (10mg/kg). After stabilization of blood pressure for about 10 minutes, test compound or its vehicle (polyethylene glycol 400) was administered intravenously (0.5ml/kg). Fifteen minutes later, the big ET-1 (1nmol/kg) was administered intravenously. ECE inhibitory activities of the test compounds in vivo shown by an index of the change in blood pressure induced by big ET-1 were evaluated by inhibitory ratio to that of the vehicle group.

The subject of a further assay is endopeptidase. Briefly: Inhibitory activity against metalloproteases other than ECE (endopeptidase). The following applies: at 10^-5M. The class given is biochemical. The text has this: (§1) The inhibitory activity of the compound of Preparation 1 against metalloproteases other than ECE, such as endopeptidase, stromelissin, and the like, are under 20% at 10^-5M, and therefore, the compound is highly specific to ECE.

Another assay deals with stromelissin (Homo sapiens, UniProt P08254). Kind of assay: Inhibitory activity against metalloproteases other than ECE (stromelissin). In kind it is biochemical. The following applies: at 10^-5M.
Description: as §1

Sequence of stromelissin (P08254 100-477): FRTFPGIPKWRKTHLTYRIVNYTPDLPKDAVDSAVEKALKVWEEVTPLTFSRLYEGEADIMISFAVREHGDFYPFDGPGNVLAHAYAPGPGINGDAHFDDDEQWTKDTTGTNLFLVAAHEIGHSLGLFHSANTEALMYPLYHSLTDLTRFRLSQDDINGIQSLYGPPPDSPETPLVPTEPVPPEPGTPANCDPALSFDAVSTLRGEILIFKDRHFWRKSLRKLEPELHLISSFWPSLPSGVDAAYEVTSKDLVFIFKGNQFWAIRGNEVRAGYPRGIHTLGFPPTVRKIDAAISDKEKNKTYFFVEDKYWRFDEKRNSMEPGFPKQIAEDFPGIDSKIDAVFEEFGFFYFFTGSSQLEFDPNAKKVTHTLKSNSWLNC

What is called pIC50 is the IC50 on a negative log10 scale, so that one unit is a factor of ten. `Cc1ccc(S(=O)(=O)NC(=O)Nc2c(C#N)cnn2C2CCCCC2)cc1` [Example 4, 4-cyano-1-cyclohexyl-5-{3-(4-toluenesulfonyl)ureido}-(1H)-pyrazole]: the pIC50 against rat lung ECE is 6.54.

On to `Cc1nn(-c2ccccc2)c(NC(=O)NS(=O)(=O)c2ccc(Cl)cc2)c1C#N` [Example 37, 4-cyano-3-methyl-1-phenyl-5-{3-(4-chlorobenzenesulfonyl)ureido}-(1H)-pyrazole], for which, at rat lung ECE, the pIC50 was 7.35. In addition, the “Big ET-1-induced increasing in blood pressure” value at ECE (3 and 10mg/kg intravenously) is listed as “apparently inhibited”. Moreover, the “Increase in systolic pressure” value at ECE (Dose 3 mg/kg intravenously) is given as 65 ± 8 mmHg; on ECE (Dose 10 mg/kg intravenously) it was 34 ± 6 mmHg.

A word on the inhibition: it is the share of the control response that was lost under treatment. Low readings indicate a weak effect, high ones a strong effect. Consider `Cc1ccc(S(=O)(=O)NC(=O)Nc2c(C#N)cnn2-c2ccccc2)cc1` [Preparation 1, 4-cyano-1-phenyl-5-{3-(4-toluenesulfonyl)ureido}-(1H)-pyrazole], for which the negative logarithm of the IC50 (pIC50) against rat lung ECE is 5.34. For the same compound, the inhibitory activity entry in the assay on endopeptidase is reported as “under 20%”. At stromelissin, this compound returned an inhibition at 10 µM of under 20%.
